Reference: US12691199B2, “Mussel-inspired photoreactive instant glue for environmental and biomedical applications” (KING ABDULLAH UNIVERSITY OF SCIENCE AND TECHNOLOGY, priority 2022, dated 2026)

Test: Photocuring / inverted vial test of aqueous adhesive solution
Assay type: physicochemical
Conditions: aqueous solution with LAP 50.9 mM, 395 nm light
Procedure: The minimum concentration of the monomer and the crosslinker that leads to a solid material after curing is 892.8 mM and 161.8 mM, respectively. The high hydrophilicity of both compounds allows the formation of a highly concentrated aqueous solution. After the photoinitiator (LAP) addition and the application of 395 nm wavelength light, radicals are formed, and a polymeric crosslinked network is created according to the reaction (FIG. 9). The solution solidifies after 10 sec of exposure to the UV light (FIGS. 10A-B). FIG. 10A has a vial (892.8 mM KDOPA-MA and 161.8 mM (KDOPA)2-DMA) and FIG. 10B (297.6 mM KDOPA-MA and 53.9 mM (KDOPA)2-DMA). In both cases, the LAP concentration was constant (50.9 mM) and the UV light was applied for 10 sec. When the concentration of the compounds decreases, the solution remains liquid and becomes cloudier after curing. […] FIG. 11A illustrates 15% crosslinker molar ratio. FIG. 11B illustrates 45% crosslinker molar ratio.
The adhesive was prepared using the formulation of Table 1. An aqueous solution of LAP photoinitiator (15 mg/ml), KDOPA-MA (350 mg/ml) and (KDOPA)2-DMA (145 mg/ml) was prepared by mixing and vortexing for 10 sec. Throughout the text this formulation mentioned KDopa glue. When KDOPA-MA was replaced with KY-MA (the (KDOPA)2-DMA crosslinker remains the same) disclosed embodiments have the KY glue. […]

| Substance | minimum concentration that leads to a solid material after curing |
| --- | --- |
| Lys-DOPA dimethacrylate [(KDOPA)2-DMA] | 161.8 mM |
| Lys-DOPA methacrylate [KDOPA-MA] | 892.8 mM |
